Results reported in patent US6624140B1, “Synthetic peptides with antimicrobial and endotoxin neutralizing properties for management of the sepsis syndrome” (Academisch Ziekenhuis Bij de Universiteit van Amsterdam …, priority 1997, dated 2003).
No end group written: not given here.

Columns and labels:
[1] = Turbidity assay of endotoxin complexation; type: binding, Escherichia coli; settings: 2-fold molar excess of synthetic peptide
Description: FIG. 2. Endotoxin complexation activity of the synthetic peptides. Peptides at concentrations of 100 to 600 μg/ml were incubated with E. coli D31m4 Re or J5 LPS at 100 μg/ml in a total volume of 100 μl pyrogen-free phosphate buffered saline (PBS) in plastic ELISA microtiter plates for 30 min at 23° C. The turbidity produced by the insoluble peptide-endotoxin complexes was measured at 340 nm. The values represent the mean of three determinations and were corrected for controls containing the same concentrations of endotoxin or peptide.
(§1) Double-immunodiffusion of the peptides of the invention against ‘rough’ R-type E. coli D31m4 Re-LPS (List Biological Laboratories Inc., Calif.) or the structurally more complex ‘smooth’ S-type E. coli 0111:B4 LPS (Sigma Chemical Co., Rockford, Ill.) was performed in 0.8% (w/v) agarose containing 50 mM Tris and 0.1% (w/v) Triton X100, pH 7.5. for 16 h at 20° C. PmB and BPI(85-102) were included as control compounds for comparative purposes. The microprecipitates formed were visualized by Coommassie brilliant blue staining. […] Since the amount of precipitate formed is a function of valency, the peptides of the invention appear to be capable of a high degree of intermolecular binding of LPS molecules via the Lipid A moieties. […] A turbidity assay was employed for a direct comparison of the endotoxin-binding activity or avidity of selected synthetic peptides according to the invention using the ‘rough’ serotypes E. coli Re or Rc (J5) LPS. PmB and BPI(85-102) were included as control compounds for comparative purposes. The degree of precipitation of endotoxin by the synthetic peptides according to the invention was determined by measurement of the optical density of insoluble complexes formed at 340 nm (FIG. 2). In most instances optimal complexation of Re or J5 LPS by the synthetic peptides of the invention was evident at a molar ratio of peptide to endotoxin of 1 to 2. The control BPI(85-102) peptide was required at a 4-fold molar excess for approximately the same degree of complexation. […] There was no significant difference between complexation of Re or the structurally more complex J5-LPS by the synthetic peptides. […] The Lipid A binding affinity of the synthetic peptides were directly compared in a solid-state endotoxin-binding assay. Binding characteristics of biotinylated derivatives of the synthetic peptides BP1, BP2, BP2.1 and the control peptide BPI(85-102) were determined on ELISA microtiter plates coated with E. coli D31m4 Lipid A. Specific binding of the biotinylated peptides to the immobilized Lipid A was determined by development with Streptavidin-HRP and 3, 5, 3′, 5′ tetra-methylbenzidine (TMB) substrate and expressed as the corrected optical density at 450 nm. […] The affinity of the novel synthetic peptide BP2 for endotoxin of increasing complexity as well as the effect of plasma on binding was examined with the use of the ELISA microplate assay.

TNF-α production [2] = assay: TNF-α in whole blood ex vivo after pre-incubation of LPS with peptide; type: cell-based, human; settings: 1 to 10 μg/ml pre-incubated with 1 ng/ml LPS, even at lowest concentration 1 μg/ml, 4 h at 37° C.
Description: FIG. 11. Effect of pre-incubation of E. coli 0111:B4 LPS with synthetic peptides or Polymyxin B on TNF-α levels in whole blood ex vivo. The indicated amounts of synthetic, control peptides or PmB were pre-incubated with E. coli 0111:B4 LPS at 1 ng/ml for […] at 23° C., added to whole blood containing heparin at 2 I.U/ml and the TNF-α concentrations determined after incubation for 4 h at 37° C. Each value is the mean of triplicate experiments. Controls only contained LPS.
In addition, the LPS-neutralizing activity of selected synthetic peptides of the invention were compared in a more complex environment of whole blood ex vivo to determine the effect of physiological concentrations of blood components such as plasma proteins, blood cells etc. on the detoxification efficacy. In pre-incubation experiments, concentrations of synthetic peptides, control peptide or PmB from 1 to 10 μg/ml were pre-incubated with 1 ng/ml E. coli 0111:B4 LPS in pyrogen-free saline for 30 min at 23° C., added to venous blood containing heparin at 2 I.U/ml as anti-coagulant and incubated for 4 h at 37° C. TNF-α concentrations were determined in appropriately diluted cell-free supernatants as described before.

TNF-α production [3] = assay: TNF-α in whole blood ex vivo, peptide added before LPS challenge; type: cell-based, human; settings: 2.5 to 20 μg/ml added 10 min before 1 ng/ml LPS
Description: FIG. 12. Effect of pre-challenge addition of synthetic peptides on TNF-a levels induced by E. coli 0111:B4 LPS in whole blood ex vivo. The synthetic peptides BP2, BP2.1 or BP2.2 were added to whole blood containing heparin at 2 I.U/ml at the concentrations indicated and incubated for 10 min at 37° C. TNF-α concentrations were measured after incubation for 4 h at 37° C. subsequent to addition of E. coli 0111:B4 LPS at 1 ng/ml. The values represent the means of triplicate experiments. Controls only contained added LPS.
To determine whether addition of synthetic peptide to whole blood ex vivo prior to endotoxin challenge was effective in endotoxin neutralization assayed in terms of cytokine production, a synthetic peptide of the invention BP2, and the analogues BP2.1 or BP2.2 were added at concentrations of 2.5 to 20 μg/ml to whole blood and incubated for 10 min at 37° C. prior to the addition of 1 ng/ml E. coli 0111:B4 LPS. TNF-α concentrations were determined as previously described. […] The structurally related LPS-binding synthetic peptide analogues BP2.1 and BP2.2 were ineffective in endotoxin neutralization under these conditions.

[4] = comparison value; cited from earlier work
[5] = system: IL-6 inducing ability of E. coli 0111:B4 LPS; assay: Effect of heparin on neutralization of IL-6 inducing ability of LPS; type: cell-based, human; settings: heparin 0.1 to 100 I.U/ml
Description: FIG. 10. Effect of heparin on the efficacy of neutralization of the IL-6 inducing ability of E. coli 0111:B4 LPS by synthetic peptide or Polymyxin B in whole blood diluted 1 in 10. Synthetic peptides at concentrations of 2 μg/ml or PmB at 1 μg/ml was pre-incubated for 30 min at 37° C. with E. coli 0111:B4 LPS at 1 ng/ml in RPMI medium containing heparin in the concentration range of 0.1 to 100 I.U/ml. The residual cytokine inducing ability of the treated endotoxin was determined in diluted whole blood containing heparin at 2 IU/ml after incubation for 16 h at 37° C. Each value is the mean of triplicate determinations corrected for background. Controls contained only LPS.
The endotoxin neutralizing activities of the synthetic peptides of the invention were evaluated by investigating the effect on LPS-stimulated release of the pro-inflammatory cytokines, tumor necrosis factor alpha (TNF-α), interleukin-6 (IL-6) or interleukin-8 (IL-8) in a well characterized in vitro human whole blood bioassay system. In one series of experiments, dilutions of E. coli 0111:B4 LPS from 0.2 to 1 ng/ml were pre-incubated with synthetic peptides at 10 μg/ml concentrations in RPMI medium for 30 min at 20° C. and added to diluted whole blood. Cytokine concentrations in the supernatants were determined after further incubation for 16 h at 37° C. in the presence of 5% CO2 by specific and sensitive ELISA kits (CLB, Amsterdam, The Netherlands). In another series of experiments, the effects of synthetic peptides at concentrations of 2,5, 5 and 10 μg/ml on IL-6 induction by 1 ng/ml 0111:B4 LPS was examined after simultaneous addition of synthetic peptide and LPS to diluted whole blood. […] The control peptide BPI(85-102) was ineffective in reducing cytokine production under these conditions even at a 4-fold higher concentration. This probably reflects the differences in binding affinity for Lipid A of BP1 and BP2 compared with the BPI(85-102) peptide of approximately 5 and 10-fold, respectively. An additional factor which may have influenced binding of the control peptide to endotoxin is the presence of heparin employed as an anti-coagulant at a concentration of […] in the assay system. […] On this basis, it was predicted that the extent of reduction of endotoxin neutralizing efficacy would be a function of the differences in affinity between peptides for endotoxin and heparin. To verify this hypothesis, a series of experiments to determine the effect of increasing heparin concentrations on the efficacy of endotoxin neutralization during pre-incubation of synthetic peptide and E. coli 0111:B4 LPS were performed. FIG. 10 illustrates a dose-dependent suppression of endotoxin neutralizing activity of the synthetic peptides by heparin as exemplified by a reduction of IL-6 inhibition. […]

[6] = Double-immunodiffusion against 0111:B4 LPS; type: binding, Escherichia coli; settings: 0.8% agarose, 16 h at 20° C.; data not shown
Description: Double-immunodiffusion of the peptides of the invention against ‘rough’ R-type E. coli D31m4 Re-LPS (List Biological Laboratories Inc., Calif.) or the structurally more complex ‘smooth’ S-type E. coli 0111:B4 LPS (Sigma Chemical Co., Rockford, Ill.) was performed in 0.8% (w/v) agarose containing 50 mM Tris and 0.1% (w/v) Triton X100, pH 7.5. for 16 h at 20° C. PmB and BPI(85-102) were included as control compounds for comparative purposes. The microprecipitates formed were visualized by Coommassie brilliant blue staining. […] Since the amount of precipitate formed is a function of valency, the peptides of the invention appear to be capable of a high degree of intermolecular binding of LPS molecules via the Lipid A moieties. […] The degree of precipitation of endotoxin by the synthetic peptides according to the invention was determined by measurement of the optical density of insoluble complexes formed at 340 nm (FIG. 2). […] Binding characteristics of biotinylated derivatives of the synthetic peptides BP1, BP2, BP2.1 and the control peptide BPI(85-102) were determined on ELISA microtiter plates coated with E. coli D31m4 Lipid A. Specific binding of the biotinylated peptides to the immobilized Lipid A was determined by development with Streptavidin-HRP and 3, 5, 3′, 5′ tetra-methylbenzidine (TMB) substrate and expressed as the corrected optical density at 450 nm. […]

[7] = system: Gram-negative and Gram-positive bacteria; assay: Anti-microbial activity of analogues and further peptides (bacterium not specified); type: cell-based; settings: even at the highest concentration tested (20 μg/ml)
Description: A peptide encompassing a selected LPS-binding domain from a well characterized human antiendotoxin protein, known as bactericidal/permeability increasing protein (BPI), from amino acids 85 to 102, denoted as BPI(85-102), was included for a direct comparison of the efficacy of the endotoxin-binding domain of a naturally occurring protein and the synthetic peptides of the invention. The amino acid sequence of the BPI(85-102) peptide is:
The BPI(85-102) reference peptide was synthesized as previously described for peptides of the invention and provided with a C-terminal Cys residue for the purpose of biotinylation as previously described. […] Incubation of various concentrations of the synthetic peptides according to the invention for a limited time period on the survival of both types of bacteria again illustrated their potent anti-microbial activity as opposed to that of the BPI(85-102) peptide (FIG. 1) with the sequence corresponding to that of the potential LPS binding domain of the native BPI protein. This is indicative of a broad specificity of the synthetic peptides, in keeping with the general bactericidal properties of this class of linear amphipathic α-helical peptides. […]

[8] = Solid-state Lipid A binding ELISA microplate assay; parameters: species or system Escherichia coli; settings: biotinylated derivatives; immobilized E. coli D31m4 Lipid A; Scatchard plot
Description: FIG. 3. Lipid A binding affinity of the synthetic peptides. Plastic ELISA microtiter plates were coated with purified E. coli D31m4 Lipid A at 1 μg/ml. Incubations were for 20 min with the indicated concentrations of synthetic peptides BP1, BP2 or BP2.1 or control peptide BPI(85-102) followed by streptavidin-HRP at a dilution of 1 in 20 000. Washing steps to remove excess peptide or streptavidin were with 50 mM Tris buffer pH 7.4 containing 0.05% (v/v) Tween 20. Development was with TMB substrate for 10 min. The optical density (O.D) at 450 nm was measured with a microplate reader and values were corrected for non-specific binding which was generally between 5 and 10%. The plotted values are the corrected means of triplicate experiments.
as §1

| Substance | avidity order (degree of insoluble peptide-endotoxin complex formation) [1] | inhibition of TNF-α production (TNF-α production [2]) | endotoxin neutralization (TNF-α production) (TNF-α production [3]) | Ka for Lipid A of known LPS binding molecule [4] | influence of heparin on LPS-neutralizing activity [5] | precipitation of 0111 LPS [6] | anti-microbial activity [7] | apparent binding affinity Ka for Lipid A [8] |
| --- | --- | --- | --- | --- | --- | --- | --- | --- |
| GKWKAFKKAAKKFAKKCS [BP2.2, analogue similar to the formula] | BP2.1>BP2.2>BP2>BP1>PmB >BPI(85-102) | no significant reduction | ineffective | – | – | – | – | – |
| Polymyxin B [PmB, reference compound] | BP2.1>BP2.2>BP2>BP1>PmB >BPI(85-102) | almost complete inhibition | – | 10^7 M^−1 | not influenced | failed to precipitate | – | – |
| GKWKLFKKAAKKFLKKCS [BP2.1, analogue similar to the formula] | BP2.1>BP2.2>BP2>BP1>PmB >BPI(85-102) | no significant reduction | ineffective | – | – | – | no detectable anti-microbial activity | 4e+07 M⁻¹ |
| GKLKKKWKAAKKFLKKCS [BP1.1, analogue similar to the formula] | – | – | – | – | – | – | no detectable anti-microbial activity | – |
